Molecular target: KRasG12D (Homo sapiens, UniProt P01116, G12D)
Assay: KRAS inhibitory activity test, TR-FRET (inhibition of binding of KRasG12D to GTP, SOS/GTP nucleotide exchange)
Format: biochemical
Conditions: read-out: IC50 values of the compounds for inhibiting KRAS enzymes, G12D
Protocol: • 1. […] Reagent Preparation: • a. Storage Reagents:
Prepare a 1L solution by mixing 20mL of 1000mM HEPES, 20mL of 500mM EDTA, 10mL of 5M sodium chloride, 0.1mL of 100% Tween 20, and 949.9mL of water. Sterilize by filtration and store at 4°C.
Prepare a 1L solution by mixing 20mL of 1000mM HEPES, 10mL of 1000mM magnesium chloride, 30mL of 5M sodium chloride, 0.05mL of 100% Tween 20, and 939.95mL of water. Sterilize by filtration and store at 4°C. 3) KRAS/Bodipy GDP/Tb-SA Mixture: Mix 9.5 µL of 95 µM KRasG12D protein with 440.5 µL of KRAS nucleotide exchange buffer. Incubate at room temperature for 1 hour. Then, mix with 8.4 µL of 17.9 µM Tb-SA, 1.8 µL of 5 mM Bodipy GDP, and 9539.8 µL of KRAS experimental buffer to prepare […]. After mixing, incubate at room temperature for 6 hours and store at -80°C.
• 1) KRAS Enzyme Solution: Mix 73.3 µL of KRAS/Bodipy GDP/Tb-SA mixture with 2126.7 µL of KRAS experimental buffer to prepare a 2200 µL solution. • 2) SOS/GTP Mixture
c. Experimental Procedure: Mix 1.59 µL of 166 µM SOS protein with 198 µL of 100 mM... GTP and 0.41 µL KRAS buffer were prepared to a 2200 µL solution. The stock solution concentration of the control compound was 1 mM, and the stock solution concentration of the test compound was 10 mM. 9 µL of the control compound and the test compound were transferred to a 384-LDV plate. The compound on the LDV plate was 3-fold diluted 10-point using Bravo. 9 nL of the compound on the LDV plate was transferred to the experimental plate using ECHO. 3 µL of a 3 nM Kras/0.5 nM TB-SA/30 nM BodipyGDP mixture and 3 µL of Ras buffer were added to each well of the experimental plate using a Dragonfly autopilot. The plate was centrifuged at 1000 rpm for 1 minute. The plate was incubated at room temperature for 1 hour. 3 µL of 120 nM SOS/9 mM KRAS buffer was added to each well of the experimental plate using a Dragonfly autopilot. The […] was centrifuged at 1000 rpm for 1 minute; the plate was incubated at room temperature for 1 hour; the plate was read and the data were recorded using Envision; the data were analyzed using Excel and Xlfit to calculate the IC50of the test compound. "++++" indicates IC50≤ 10 nM; "+++" indicates 10 nM < IC50≤ 100 nM; "++" indicates 100 nM < IC50≤ 2000 nM; "+" indicates 2000 nM < IC50.

With `Cc1cc(N)c(F)c([C@@H]2Cc3nc(OC[C@@]45CCCN4CC(=C(F)F)C5)nc(N4CC5CCC(C4)N5)c3CS2(=O)=O)c1C(F)(F)F` [Compound 10A, (7S)-7-(3-amino-2-fluoro-5-methyl-6-(trifluoromethyl)phenyl)-4-(3,8-diazabicyclo[3. 2.1]octane-3-yl)-2-(((S)-2-(difluoromethylene)tetrahydro-1H-pyrrolazin-7a(5H)-yl)methoxy)-7,8-dihydro-5H-thiopyrano[4,3-d]pyrimidine-6,6-dioxide] the IC50 was at most 10 nM.
“7-(3-amino-2-fluoro-5-methyl-6-(trifluoromethyl)phenyl)-4-(1R,5S)-3,8-diazabicyclo [3.2.1]octane-3-yl)-2-(((2R,7AS)-2-fluorotetrahydro-1H-pyrrolazin-7a(5H)-yl)methox y)-7,8-dihydro-5H-thiopyrano[4,3-d]pyrimidine-6,6-dioxide [Compound 36]” gave an IC50 of at most 10 nM.
`CC#Cc1cc(N)c(F)c(C2Cc3nc(OC[C@@]45CCCN4C/C(=C\F)C5)nc(N4CC5CCC(C4)N5)c3CS2(=O)=O)c1C(F)(F)F` (stereo partly drawn) [Compound 24, 7-(3-amino-2-fluoro-5-(prop-1-yn-1-yl)-6-(trifluoromethyl)phenyl)-4-(3,8-diazabicyclo[3.2.1]octane-3-yl)-2-(((S)-2-(fluoromethylene)tetrahydro-1H-pyrrolazin-7a(5H)-yl)methoxy)-7,8-dihydro-5H-thiopyrano[4,3-d]pyrimidine-6,6-dioxide] was tested, and the IC50 was at most 10 nM.
With `CC#Cc1cc(N)c(F)c([C@@H]2Cc3nc(OC[C@@]45CCCN4C[C@H](F)C5)nc(N4CC5CCC(C4)N5)c3CS2(=O)=O)c1C(F)(F)F` [Compound 21A, (7S)-7-(3-amino-2-fluoro-5-(prop-1-yn-1-yl)-6-(trifluoromethyl)phenyl)-4-(3,8-diazabicyclo[3.2.1]octane-3-yl)-2-(((2R,7AS)-2-fluorotetrahydro-1H-pyrrolazin-7a(5H)-yl)methoxy)-7,8-dihydro-5H-thiopyrano[4,3-d]pyrimidine-6,6-dioxide] the IC50 was at most 10 nM.
`Cc1cc(N)nc([C@@H]2Cc3nc(OC[C@@]45CCCN4CC(=C(F)F)C5)nc(N4CC5CCC(C4)N5)c3CS2(=O)=O)c1C(F)(F)F` [Compound 18A, (7S)-7-(6-amino-4-methyl-3-(trifluoromethyl)pyridin-2-yl)-2-(((S)-2-(difluoromethylene)tetrahydro-1H-pyrrolazin-7a(5H)-yl)methoxy)-4-(3,8-diazabicyclo[3.2.1]octane-3-yl)-7,8-dihydro-5H-thiopyrano[4,3-d]pyrimidine-6,6-dioxide] was tested, and the IC50 was at most 10 nM.
`Cc1cc(N)c(F)c([C@H]2Cc3nc(OC[C@@]45CCCN4C[C@H](F)C5)nc(N4C[C@H]5CC[C@@H](C4)N5)c3CS2(=O)=O)c1C(F)(F)F` [Compound 1B, (7R)-7-(3-amino-2-fluoro-5-methyl-6-(trifluoromethyl)phenyl)-4-((1R,5S)-3,8-diazabicyclo[3.2.1]octane-3-yl)-2-(((2R,7AS)-2-fluorotetrahydro-1H-pyrrolazin-7a(5H)-yl)methoxy)-7,8-dihydro-5H-thiopyrano[4,3-d]pyrimidine 6,6-Dioxide] showed an IC50 of 10 to 100 nM.
`Cc1cc(N)nc(C2Cc3nc(OC[C@@]45CCCN4CC(=C(F)F)C5)nc(N4CC5CCC(C4)N5)c3CS2(=O)=O)c1C(F)(F)F` (stereo partly drawn) [Compound 18, 7-(6-amino-4-methyl-3-(trifluoromethyl)pyridin-2-yl)-2-(((S)-2-(difluoromethylene)tetrahydro-1H-pyrrolazin-7a(5H)-yl)methoxy)-4-(3,8-diazabicyclo[3.2.1]octane-3-yl)-7,8-dihydro-5H-thiopyrano[4,3-d]pyrimidine-6,6-dioxide] was tested, and the IC50 was at most 10 nM.
`CC#Cc1cc(N)cc(C2Cc3nc(OC[C@@]45CCCN4CC(=C(F)F)C5)nc(N4CC5CCC(C4)N5)c3CS2(=O)=O)c1C(F)(F)F` (stereo partly drawn) [Compound 31] gave an IC50 of at most 10 nM.
Work on `Cc1cc(N)c(F)c(C2Cc3nc(OC[C@@]45CCCN4CC(=CF)C5)nc(N4CC5CCC(C4)N5)c3CS2(=O)=O)c1C(F)(F)F` (stereo partly drawn) [Compound 10, 7-7-(3-amino-2-fluoro-5-methyl-6-(trifluoromethyl)phenyl)-4-(3,8-diazabicyclo[3.2.1]octane-3-yl)-2-(((S)-2-(fluoromethylene)tetrahydro-1H-pyrrolazin-7a(5H)-yl)methoxy) -7,8-dihydro-5H-thiopyrano[4,3-d]pyrimidine-6,6-dioxide] yielded an IC50 of at most 10 nM.
Work on `C=C1CN2CCC[C@@]2(COc2nc3c(c(N4CC5CCC(C4)N5)n2)CS(=O)(=O)[C@H](c2c(F)c(N)cc(C#CC)c2C(F)(F)F)C3)C1` [Compound 22A, (7S)-7-(3-amino-2-fluoro-5-(prop-1-yn-1-yl)-6-(trifluoromethyl)phenyl)-4-(3,8-diazabicyclo[3.2.1]octane-3-yl)-2-(((S)-2-(methylene)tetrahydro-1H-pyrrolazin-7a(5H)-yl)methoxy)-7,8-dihydro-5H-thiopyrano[4,3-d]pyrimidine-6,6-dioxide] yielded an IC50 of at most 10 nM.
For `Cc1cc(N)cc([C@@H]2Cc3nc(OC[C@@]45CCCN4C/C(=C\F)C5)nc(N4CC5CCC(C4)N5)c3CS2(=O)=O)c1C(F)(F)F` [Compound 39A], the IC50 was at most 10 nM.
`C=C1CN2CCC[C@@]2(COc2nc3c(c(N4CC5CCC(C4)N5)n2)CS(=O)(=O)[C@H](c2c(F)c(N)cc(C)c2C(F)(F)F)C3)C1` [Compound 11A, (7S)-7-(3-amino-2-fluoro-5-methyl-6-(trifluoromethyl)phenyl)-4-(3,8-diazabicyclo[3. 2.1]octane-3-yl)-2-(((S)-2-(methylene)tetrahydro-1H-pyrrolazin-7a(5H)-yl)methoxy)-7,8-dihydro-5H-thiopyrano[4,3-d]pyrimidine-6,6-dioxide] showed an IC50 of at most 10 nM.
`Cc1cc(N)c(F)c([C@@H]2Cc3nc(OC[C@@]45CCCN4C[C@H](F)C5)nc(N4C[C@H]5CC[C@@H](C4)N5)c3CS2(=O)=O)c1C(F)(F)F` [Compound 36A, (7S)-7-(3-amino-2-fluoro-5-methyl-6-(trifluoromethyl)phenyl)-4-((1R,5S)-3,8-diazabicyclo[3.2.1]octane-3-yl)-2-(((2R,7AS)-2-fluorotetrahydro-1H-pyrrolazin-7a(5H)-yl)methoxy)-7,8-dihydro-5H-thiopyrano[4,3-d]pyrimidine 6,6-Dioxide] showed an IC50 of at most 10 nM.
For `C=C1CN2CCC[C@@]2(COc2nc3c(c(N4CC5CCC(C4)N5)n2)CS(=O)(=O)[C@H](c2nc(N)cc(C)c2C(F)(F)F)C3)C1` [Compound 20A, (7S)-7-(6-amino-4-methyl-3-(trifluoromethyl)pyridin-2-yl)-2-(((S)-2-(methylene)tetra hydro-1H-pyrrolazin-7a(5H)-yl)methoxy)-4-(3,8-diazabicyclo[3.2.1]octane-3-yl)-7,8-dihydro-5H-thiopyrano[4,3-d]pyrimidine-6,6-dioxide], the IC50 was at most 10 nM.
For `Cc1cc(N)c(F)c([C@@H]2Cc3nc(OC[C@@]45CCCN4C[C@H](F)C5)nc(N4C[C@H]5CC[C@@H](C4)N5)c3CS2(=O)=O)c1C(F)(F)F` [Compound 29A, (7S)-7-(3-amino-2-fluoro-5-methyl-6-(trifluoromethyl)phenyl)-4-((1R,5S)-3,8-diazabicyclo[3.2.1]octane-3-yl)-2-(((2R,7AS)-2-fluorotetrahydro-1H-pyrrolazin-7a(5H)-yl)methoxy)-7,8-dihydro-5H-thiopyrano[4,3-d]pyrimidine 6,6-Dioxide], the IC50 was at most 10 nM.
For `CC#Cc1cc(N)cc([C@@H]2Cc3nc(OC[C@@]45CCCN4CC(=C(F)F)C5)nc(N4CC5CCC(C4)N5)c3CS2(=O)=O)c1C(F)(F)F` [Compound 31A], the IC50 was at most 10 nM.
Work on `Cc1cc(N)c(F)c([C@H]2Cc3nc(OC[C@@]45CCCN4C[C@H](F)C5)nc(N4CCC[C@@](C)(O)C4)c3CS2(=O)=O)c1C(F)(F)F` [Compound 5B, (7R)-7-(3-amino-2-fluoro-5-methyl-6-(trifluoromethyl)phenyl)-2-(((2R,7AS)-2-fluorotetrahydro-1H-pyrrolazin-7a(5H)-yl)methoxy)-4-((R)-3-hydroxy-3-methylpiperidin-1-yl)-7,8-dihydro-5H-thiopyrano[4,3-d]pyrimidine-6,6-dioxide] yielded an IC50 of at most 10 nM.
With `CC#Cc1cc(N)c(F)c(C2Cc3nc(OC[C@@]45CCCN4CC(=C(F)F)C5)nc(N4CC5CCC(C4)N5)c3CS2(=O)=O)c1C(F)(F)F` (stereo partly drawn) [Compound 23, 7-(3-amino-2-fluoro-5-(prop-1-yn-1-yl)-6-(trifluoromethyl)phenyl)-4-(3,8-diazabicyclo[3.2.1]octane-3-yl)-2-(((S)-2-(difluoromethylene)tetrahydro-1H-pyrrolazin-7a(5H)-y 1)methoxy)-7,8-dihydro-5H-thiopyrano[4,3-d]pyrimidine-6,6-dioxide] the IC50 was at most 10 nM.
